PubChem BioAssay AID2060893 (Molecular Pharmacology Branch, DTP, NCI, 2025)
“And” between values parts separate entries of the source, which are not always exact repeats. Equal entries are not always repeated.

Test system: K86415-001-R-J1-PDC complex spheroids, viability
Assay: Anticancer human tumor K86415-001-R-J1-PDC patient-derived lung adenocarcinoma cell line growth inhibition [RAS]
Settings: for viability, T/C: stronger effect = lower value; active = viability on the fitted dose curve at most 10% of control; inactive = the rest
How it was run: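 Multi-cell-type spheroids: tumor cells plus HUVEC endothelial cells and mesenchymal stem cells. RAS-pathway inhibitors were combined with targeted agents, each dosed in half-log steps down from clinical Cmax, or from 10 microM when Cmax was unknown.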

[1] = curve of first compound, second compound 0.000949 µM
[2] = curve of first compound, second compound 0.003 µM
[3] = curve of first compound, second compound 0.00949 µM
[4] = curve of first compound, second compound 0.03 µM
[5] = curve of first compound, second compound 0.0949 µM
[6] = curve of first compound, second compound 0.3 µM
[7] = second compound 0.000949 µM, first compound 0.00316 µM
[8] = second compound 0.000949 µM, first compound 0.01 µM
[9] = second compound 0.000949 µM, first compound 0.0316 µM
[10] = second compound 0.000949 µM, first compound 0.1 µM
[11] = second compound 0.000949 µM, first compound 0.316 µM
[12] = second compound 0.000949 µM, first compound 1 µM
[13] = second compound 0.003 µM, first compound 0.00316 µM
[14] = second compound 0.003 µM, first compound 0.01 µM
[15] = second compound 0.003 µM, first compound 0.0316 µM
[16] = second compound 0.003 µM, first compound 0.1 µM
[17] = second compound 0.003 µM, first compound 0.316 µM
[18] = second compound 0.003 µM, first compound 1 µM
[19] = second compound 0.00949 µM, first compound 0.00316 µM
[20] = second compound 0.00949 µM, first compound 0.01 µM
[21] = second compound 0.00949 µM, first compound 0.0316 µM
[22] = second compound 0.00949 µM, first compound 0.1 µM
[23] = second compound 0.00949 µM, first compound 0.316 µM
[24] = second compound 0.00949 µM, first compound 1 µM
[25] = second compound 0.03 µM, first compound 0.00316 µM
[26] = second compound 0.03 µM, first compound 0.01 µM
[27] = second compound 0.03 µM, first compound 0.0316 µM
[28] = second compound 0.03 µM, first compound 0.1 µM
[29] = second compound 0.03 µM, first compound 0.316 µM
[30] = second compound 0.03 µM, first compound 1 µM
[31] = second compound 0.0949 µM, first compound 0.00316 µM
[32] = second compound 0.0949 µM, first compound 0.01 µM
[33] = second compound 0.0949 µM, first compound 0.0316 µM
[34] = second compound 0.0949 µM, first compound 0.1 µM
[35] = second compound 0.0949 µM, first compound 0.316 µM
[36] = second compound 0.0949 µM, first compound 1 µM
[37] = second compound 0.3 µM, first compound 0.00316 µM
[38] = second compound 0.3 µM, first compound 0.01 µM
[39] = second compound 0.3 µM, first compound 0.0316 µM
[40] = second compound 0.3 µM, first compound 0.1 µM
[41] = second compound 0.3 µM, first compound 0.316 µM
[42] = second compound 0.3 µM, first compound 1 µM
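Note: spheroids exposed to agents for seven days before readout.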

NC1c2ccccc2OC12CCN(c1cnc3c(N4CCCc5ncccc54)n[nH]c3n1)CC2 (configuration not stated)
< 31.6 nM: IC50 (curve of compound)
inactive: viability, T/C (compound 0.0316 µM) 46.3% [middle of 4 runs] | viability, T/C (compound 0.1 µM) 29.9% [middle of 4 runs] | viability, T/C (compound 0.316 µM) 22.7% [middle of 4 runs] | viability, T/C (compound 1 µM) 19.7% and 20.6% and 16.5% | viability, T/C (compound 3.16 µM) 21% [middle of 4 runs] | viability, T/C (compound 10 µM) 23.1% [middle of 4 runs]

Nc1ccn(C2OC(CO)C(O)C2(F)F)c(=O)n1 (configuration not stated) + CCn1c(-c2cccnc2C(C)OC)c2c3cc(ccc31)N1CCOC(CC(NC(=O)C(C(C)C)N(C)C(=O)C3(F)CCN(C(=O)C#CC(C)(C)N(C)C)CC3)C(=O)N3CCCC(N3)C(=O)OCC(C)(C)C2)C1
< 3.16 nM: IC50 [1] | IC50 [2] | IC50 [3] | IC50 [4] | IC50 [5] | IC50 [6]
active: viability, T/C [40] 9.08% | viability, T/C [41] 8.09% | viability, T/C [42] 10.1%
inactive: viability, T/C [7] 37.9% | viability, T/C [8] 34.3% | viability, T/C [9] 19.9% | viability, T/C [10] 27% | viability, T/C [11] 19.2% | viability, T/C [12] 9.69% | viability, T/C [13] 15.3% | viability, T/C [14] 11.6% | viability, T/C [15] 10.8% | viability, T/C [16] 12.3% | viability, T/C [17] 12% | viability, T/C [18] 9.95% | viability, T/C [19] 9.77% | viability, T/C [20] 10% | viability, T/C [21] 16.4% | viability, T/C [22] 12.3% | viability, T/C [23] 11.2% | viability, T/C [24] 7.94% | viability, T/C [25] 13.3% | viability, T/C [26] 11% | viability, T/C [27] 11.1% | viability, T/C [28] 9.53% | viability, T/C [29] 9.66% | viability, T/C [30] 12.4% | viability, T/C [31] 11.5% | viability, T/C [32] 10.9% | viability, T/C [33] 12.8% | viability, T/C [34] 11.3% | viability, T/C [35] 7.92% | viability, T/C [36] 10.5% | viability, T/C [37] 15.4% | viability, T/C [38] 12.6% | viability, T/C [39] 11.2%

CCn1c(-c2cc(N3CCN(C)CC3)cnc2C(C)OC)c2c3cc(ccc31)-c1csc(n1)CC(NC(=O)C1CC1C)C(=O)N1CCCC(N1)C(=O)OCC(C)(C)C2 (configuration not stated)
active: viability, T/C (compound 0.03 µM) 6.3% [middle of 8 runs] | viability, T/C (compound 0.0949 µM) 3.96% [middle of 8 runs] | viability, T/C (compound 0.3 µM) 3.36% [middle of 8 runs]
inactive: viability, T/C (compound 0.000949 µM) 50.3% [middle of 8 runs] | viability, T/C (compound 0.003 µM) 22.4% [middle of 8 runs]
10.2% [middle of 8 runs]: viability, T/C (compound 0.00949 µM)

C=CC(=O)Nc1cc(Nc2nccc(-c3cn(C)c4ccccc34)n2)c(OC)cc1N(C)CCN(C)C + CCn1c(-c2cc(N3CCN(C)CC3)cnc2C(C)OC)c2c3cc(ccc31)-c1csc(n1)CC(NC(=O)C1CC1C)C(=O)N1CCCC(N1)C(=O)OCC(C)(C)C2
inactive: viability, T/C [7] 42.7% | viability, T/C [8] 48.3% | viability, T/C [9] 35.9% | viability, T/C [10] 38.2% | viability, T/C [11] 21.3% | viability, T/C [12] 12.4% | viability, T/C [13] 24.9% | viability, T/C [14] 21.3% | viability, T/C [15] 14.2% | viability, T/C [16] 17% | viability, T/C [17] 8.65% | viability, T/C [19] 17.6% | viability, T/C [20] 9.97%
active: viability, T/C [18] 7.93% | viability, T/C [21] 7.46% | viability, T/C [22] 8.25% | viability, T/C [23] 4.55% | viability, T/C [24] 4.52% | viability, T/C [25] 7.56% | viability, T/C [26] 5.27% | viability, T/C [27] 5.75% | viability, T/C [28] 3.23% | viability, T/C [29] 3.09% | viability, T/C [30] 3.11% | viability, T/C [31] 3.51% | viability, T/C [32] 3.84% | viability, T/C [33] 2.21% | viability, T/C [34] 2.65% | viability, T/C [35] 3.94% | viability, T/C [36] 3.24% | viability, T/C [37] 2.73% | viability, T/C [38] 2.35% | viability, T/C [39] 2.65% | viability, T/C [40] 2.51% | viability, T/C [41] 2.55% | viability, T/C [42] 3.25%
< 3.16 nM: IC50 [1] | IC50 [2] | IC50 [3] | IC50 [4] | IC50 [5] | IC50 [6]
